Laboratory results reported in ChEMBL document CHEMBL6120956, “Discovery of a Potent, Orally Active, and Long-Lasting P2X7 Receptor Antagonist as a Preclinical Candidate for Delaying the Progression of Chronic Kidney Disease” (J Med Chem, 2024).
pIC50: −log10 of the molar value.

How the values were obtained:
[1] = target: T1, P2X purinoceptor 7 (Mus musculus, UniProt Q9Z1M0); test: Antagonist activity against mouse P2X7 receptor expressed in ATP-stimulated HEK293 cells assessed as influx of PI by fluorescence dye uptake assay relative to control; format: cell-based
T1 sequence (Q9Z1M0 whole entry): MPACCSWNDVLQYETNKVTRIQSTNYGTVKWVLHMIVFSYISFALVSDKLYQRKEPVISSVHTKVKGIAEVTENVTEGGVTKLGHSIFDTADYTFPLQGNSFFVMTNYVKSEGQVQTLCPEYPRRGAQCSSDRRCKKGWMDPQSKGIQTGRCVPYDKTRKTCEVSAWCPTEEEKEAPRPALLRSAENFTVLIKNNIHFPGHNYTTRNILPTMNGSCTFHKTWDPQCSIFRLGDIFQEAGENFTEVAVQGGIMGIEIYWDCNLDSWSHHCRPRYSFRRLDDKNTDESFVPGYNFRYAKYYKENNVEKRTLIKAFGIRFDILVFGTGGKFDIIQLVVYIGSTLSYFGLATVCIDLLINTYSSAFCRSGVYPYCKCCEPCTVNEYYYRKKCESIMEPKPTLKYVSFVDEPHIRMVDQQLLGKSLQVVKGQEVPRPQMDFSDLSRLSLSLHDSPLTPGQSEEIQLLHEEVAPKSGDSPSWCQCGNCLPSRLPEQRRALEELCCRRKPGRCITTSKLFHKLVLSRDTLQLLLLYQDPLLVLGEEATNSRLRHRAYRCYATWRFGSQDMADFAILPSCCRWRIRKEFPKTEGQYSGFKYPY

[2] = Metabolic stability in human liver microsomes assessed as clearance; format: ADME, Microsome; settings: read-out: CLH
[3] = Metabolic stability in human liver microsomes assessed as half life; format: ADME, Microsome
[4] = Metabolic stability in mouse liver microsomes assessed as clearance; format: ADME, Microsome; settings: read-out: CLH
[5] = Metabolic stability in mouse liver microsomes assessed as half life; format: ADME, Microsome
[6] = AUC (0 to t) in male BALB/c mouse at 10 mg/kg, po single administration measured upto 72 hrs by LC-MS/MS analysis; format: ADME, organism-based; settings: in vivo
[7] = Clearance in male BALB/c mouse at 10 mg/kg, po single administration measured upto 72 hrs by LC-MS/MS analysis; format: ADME, organism-based; settings: in vivo
[8] = Cmax in male BALB/c mouse at 10 mg/kg, po single administration measured upto 72 hrs by LC-MS/MS analysis; format: ADME, organism-based; settings: in vivo
[9] = Half life in male BALB/c mouse at 10 mg/kg, po single administration measured upto 72 hrs by LC-MS/MS analysis; format: ADME, organism-based; settings: in vivo
[10] = Tmax in male BALB/c mouse at 10 mg/kg, po single administration measured upto 72 hrs by LC-MS/MS analysis; format: ADME, organism-based; settings: in vivo
[11] = Stability in Balb/c mouse plasma measured upto 8 hrs; format: ADME, cell-free
[12] = Plasma protein binding in plasma (unknown origin) at 10 uM measured after 6 hrs incubation by LC-MS/MS analysis; format: ADME, cell-free; settings: read-out: PPB (converted)
[13] = target: CYP2C9 (Homo sapiens, UniProt P11712); test: Inhibition of CYP2C9 in human liver microsomes assessed as compound remaining at 1 uM measured after 2 hrs incubation by LC-MS/MS analysis; format: ADME, Microsome; settings: read-out: Activity
CYP2C9, sequence (P11712 whole entry): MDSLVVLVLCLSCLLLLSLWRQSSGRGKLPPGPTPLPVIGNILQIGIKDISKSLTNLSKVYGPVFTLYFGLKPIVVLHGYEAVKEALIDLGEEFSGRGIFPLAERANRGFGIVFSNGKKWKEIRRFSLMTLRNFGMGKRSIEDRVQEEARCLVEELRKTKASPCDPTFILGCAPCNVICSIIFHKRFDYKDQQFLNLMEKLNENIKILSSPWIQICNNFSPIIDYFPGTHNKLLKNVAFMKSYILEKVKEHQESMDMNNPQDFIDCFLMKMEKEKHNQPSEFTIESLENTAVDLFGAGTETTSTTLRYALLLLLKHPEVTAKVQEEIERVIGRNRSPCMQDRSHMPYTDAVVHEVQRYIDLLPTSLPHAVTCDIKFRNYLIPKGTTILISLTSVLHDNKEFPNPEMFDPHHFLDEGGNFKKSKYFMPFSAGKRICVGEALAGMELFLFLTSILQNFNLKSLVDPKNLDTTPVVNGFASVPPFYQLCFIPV

[14] = target: T2, CYP1A2 (Homo sapiens, UniProt P05177); test: Inhibition of CYP1A2 in human liver microsomes assessed as compound remaining at 1 uM measured after 2 hrs incubation by LC-MS/MS analysis; format: ADME, Microsome; settings: read-out: Activity
T2 sequence (P05177 whole entry): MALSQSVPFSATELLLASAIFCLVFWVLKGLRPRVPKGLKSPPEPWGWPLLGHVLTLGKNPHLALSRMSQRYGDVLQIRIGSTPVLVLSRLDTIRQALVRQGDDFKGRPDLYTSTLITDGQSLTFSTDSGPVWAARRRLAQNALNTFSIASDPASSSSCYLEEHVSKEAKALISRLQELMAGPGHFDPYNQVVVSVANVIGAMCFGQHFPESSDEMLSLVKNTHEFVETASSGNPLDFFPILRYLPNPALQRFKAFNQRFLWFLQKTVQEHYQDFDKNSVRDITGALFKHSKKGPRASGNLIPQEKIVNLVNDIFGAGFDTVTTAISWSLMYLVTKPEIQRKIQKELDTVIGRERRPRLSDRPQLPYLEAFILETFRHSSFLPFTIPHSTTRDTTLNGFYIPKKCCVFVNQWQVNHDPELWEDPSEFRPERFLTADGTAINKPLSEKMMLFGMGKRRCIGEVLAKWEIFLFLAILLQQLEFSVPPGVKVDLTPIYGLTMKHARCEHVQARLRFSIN

[15] = target: T3, CYP2A6 (Homo sapiens, UniProt P11509); test: Inhibition of CYP2A6 in human liver microsomes assessed as compound remaining at 1 uM measured after 2 hrs incubation by LC-MS/MS analysis; format: ADME, Microsome; settings: read-out: Activity
T3 sequence (P11509 whole entry): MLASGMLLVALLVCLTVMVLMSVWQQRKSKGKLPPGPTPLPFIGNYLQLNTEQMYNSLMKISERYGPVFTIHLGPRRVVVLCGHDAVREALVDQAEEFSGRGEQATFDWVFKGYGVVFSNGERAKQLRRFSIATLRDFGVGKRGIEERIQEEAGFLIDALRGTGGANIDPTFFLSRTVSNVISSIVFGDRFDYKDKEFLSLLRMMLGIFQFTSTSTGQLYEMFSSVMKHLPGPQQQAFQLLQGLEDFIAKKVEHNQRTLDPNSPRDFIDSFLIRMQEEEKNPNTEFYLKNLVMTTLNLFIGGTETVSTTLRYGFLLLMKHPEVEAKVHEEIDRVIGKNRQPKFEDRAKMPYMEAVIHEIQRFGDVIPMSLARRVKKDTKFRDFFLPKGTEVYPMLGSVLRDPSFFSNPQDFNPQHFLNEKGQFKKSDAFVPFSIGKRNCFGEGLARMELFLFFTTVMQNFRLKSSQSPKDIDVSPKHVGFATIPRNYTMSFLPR

[16] = target: CYP2C19 (Homo sapiens, UniProt P33261); test: Inhibition of CYP2C19 in human liver microsomes assessed as compound remaining at 1 uM measured after 2 hrs incubation by LC-MS/MS analysis; format: ADME, Microsome; settings: read-out: Activity
CYP2C19, sequence (P33261 whole entry): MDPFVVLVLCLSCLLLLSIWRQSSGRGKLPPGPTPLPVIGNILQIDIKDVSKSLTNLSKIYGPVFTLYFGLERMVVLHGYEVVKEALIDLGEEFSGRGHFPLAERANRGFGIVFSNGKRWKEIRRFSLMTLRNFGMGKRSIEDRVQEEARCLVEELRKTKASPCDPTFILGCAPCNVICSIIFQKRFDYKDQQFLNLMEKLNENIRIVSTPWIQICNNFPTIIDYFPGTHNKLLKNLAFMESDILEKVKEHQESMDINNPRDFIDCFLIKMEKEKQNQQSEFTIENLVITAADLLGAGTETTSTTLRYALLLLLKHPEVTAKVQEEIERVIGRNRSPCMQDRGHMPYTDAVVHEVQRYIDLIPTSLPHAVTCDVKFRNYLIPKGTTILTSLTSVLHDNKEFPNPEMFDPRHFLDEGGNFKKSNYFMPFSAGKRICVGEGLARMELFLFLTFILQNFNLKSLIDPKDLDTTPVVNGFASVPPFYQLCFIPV

[17] = target: CYP2D6 (Homo sapiens, UniProt P10635); test: Inhibition of CYP2D6 in human liver microsomes assessed as compound remaining at 1 uM measured after 2 hrs incubation by LC-MS/MS analysis; format: ADME, Microsome; settings: read-out: Activity
CYP2D6, sequence (P10635 whole entry): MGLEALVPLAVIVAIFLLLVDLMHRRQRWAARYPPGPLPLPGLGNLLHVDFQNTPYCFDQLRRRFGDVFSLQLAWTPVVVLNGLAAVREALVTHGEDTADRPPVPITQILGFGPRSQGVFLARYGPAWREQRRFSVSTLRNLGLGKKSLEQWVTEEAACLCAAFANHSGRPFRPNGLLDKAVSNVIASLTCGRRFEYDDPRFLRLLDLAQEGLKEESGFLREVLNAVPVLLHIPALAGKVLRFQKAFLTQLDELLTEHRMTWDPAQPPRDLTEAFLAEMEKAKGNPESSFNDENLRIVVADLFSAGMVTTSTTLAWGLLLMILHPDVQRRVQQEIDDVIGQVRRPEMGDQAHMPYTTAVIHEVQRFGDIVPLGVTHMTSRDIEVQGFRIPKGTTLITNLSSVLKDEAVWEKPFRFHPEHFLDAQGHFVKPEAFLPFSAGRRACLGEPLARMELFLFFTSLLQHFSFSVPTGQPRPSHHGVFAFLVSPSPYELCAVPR

[18] = target: CYP2E1 (Homo sapiens, UniProt P05181); test: Inhibition of CYP2E1 in human liver microsomes assessed as compound remaining at 1 uM measured after 2 hrs incubation by LC-MS/MS analysis; format: ADME, Microsome; settings: read-out: Activity
CYP2E1, sequence (P05181 whole entry): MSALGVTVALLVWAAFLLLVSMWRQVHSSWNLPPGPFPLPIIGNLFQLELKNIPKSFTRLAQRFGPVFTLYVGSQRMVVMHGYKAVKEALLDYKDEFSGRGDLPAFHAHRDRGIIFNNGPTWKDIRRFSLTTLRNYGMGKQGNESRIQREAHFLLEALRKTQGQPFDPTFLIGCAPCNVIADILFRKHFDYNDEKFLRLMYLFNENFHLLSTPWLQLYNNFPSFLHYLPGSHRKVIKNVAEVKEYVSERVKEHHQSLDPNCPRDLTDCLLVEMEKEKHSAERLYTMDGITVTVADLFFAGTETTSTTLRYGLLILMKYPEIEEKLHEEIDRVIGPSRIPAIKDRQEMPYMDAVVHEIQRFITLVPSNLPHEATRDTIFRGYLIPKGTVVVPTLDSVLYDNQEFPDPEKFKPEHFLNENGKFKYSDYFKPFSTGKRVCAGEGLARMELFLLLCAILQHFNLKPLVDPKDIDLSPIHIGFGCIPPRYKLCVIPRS

[19] = target: CYP3A4 (Homo sapiens, UniProt P08684); test: Inhibition of CYP3A4 in human liver microsomes assessed as compound remaining at 1 uM measured after 2 hrs incubation by LC-MS/MS analysis; format: ADME, Microsome; settings: read-out: Activity
CYP3A4, sequence (P08684 whole entry): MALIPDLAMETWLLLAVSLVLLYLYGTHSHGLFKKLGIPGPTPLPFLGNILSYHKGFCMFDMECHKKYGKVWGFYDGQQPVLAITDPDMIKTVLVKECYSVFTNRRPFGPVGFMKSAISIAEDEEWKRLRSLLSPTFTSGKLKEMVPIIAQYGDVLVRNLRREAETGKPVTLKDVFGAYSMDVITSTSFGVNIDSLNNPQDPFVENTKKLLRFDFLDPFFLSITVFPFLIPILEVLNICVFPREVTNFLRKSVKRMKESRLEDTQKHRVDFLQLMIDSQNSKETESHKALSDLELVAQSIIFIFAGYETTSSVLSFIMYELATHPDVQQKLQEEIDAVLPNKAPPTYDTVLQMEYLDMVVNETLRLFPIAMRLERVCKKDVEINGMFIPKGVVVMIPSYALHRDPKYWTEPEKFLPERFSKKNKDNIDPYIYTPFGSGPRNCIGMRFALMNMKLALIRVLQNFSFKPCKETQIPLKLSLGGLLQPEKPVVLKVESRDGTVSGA

[20] = tested on: HEK293; test: Cytotoxicity against HEK293 cells expressing human P2X7 receptor assessed as cell viability upto 2 uM measured after 24 hrs incubation by CCK8 assay; format: toxicity, cell-based; settings: hek293, 24 h
[21] = tested on: HEK293; test: Cytotoxicity against HEK293 cells expressing mouse P2X7 receptor assessed as cell viability upto 2 uM measured after 24 hrs incubation by CCK8 assay; format: toxicity, cell-based; settings: human, hek293, 24 h
[22] = Toxicity in female C57BL/6 mouse assessed as decrease in body weight at 2 g/Kg measured for 2 to 6 days; settings: in vivo, 2000 mg/kg, time 2-6 day
[23] = Toxicity in C57BL/6 mouse assessed as change in body weight at 2 g/Kg measured for 14 days; settings: in vivo, 2000 mg/kg, 336 h, time 14 day
[24] = target: Voltage-gated inwardly rectifying potassium channel KCNH2 (Homo sapiens, UniProt Q12809); test: Inhibition of hERG; format: toxicity
Voltage-gated inwardly rectifying potassium channel KCNH2, sequence (Q12809 whole entry): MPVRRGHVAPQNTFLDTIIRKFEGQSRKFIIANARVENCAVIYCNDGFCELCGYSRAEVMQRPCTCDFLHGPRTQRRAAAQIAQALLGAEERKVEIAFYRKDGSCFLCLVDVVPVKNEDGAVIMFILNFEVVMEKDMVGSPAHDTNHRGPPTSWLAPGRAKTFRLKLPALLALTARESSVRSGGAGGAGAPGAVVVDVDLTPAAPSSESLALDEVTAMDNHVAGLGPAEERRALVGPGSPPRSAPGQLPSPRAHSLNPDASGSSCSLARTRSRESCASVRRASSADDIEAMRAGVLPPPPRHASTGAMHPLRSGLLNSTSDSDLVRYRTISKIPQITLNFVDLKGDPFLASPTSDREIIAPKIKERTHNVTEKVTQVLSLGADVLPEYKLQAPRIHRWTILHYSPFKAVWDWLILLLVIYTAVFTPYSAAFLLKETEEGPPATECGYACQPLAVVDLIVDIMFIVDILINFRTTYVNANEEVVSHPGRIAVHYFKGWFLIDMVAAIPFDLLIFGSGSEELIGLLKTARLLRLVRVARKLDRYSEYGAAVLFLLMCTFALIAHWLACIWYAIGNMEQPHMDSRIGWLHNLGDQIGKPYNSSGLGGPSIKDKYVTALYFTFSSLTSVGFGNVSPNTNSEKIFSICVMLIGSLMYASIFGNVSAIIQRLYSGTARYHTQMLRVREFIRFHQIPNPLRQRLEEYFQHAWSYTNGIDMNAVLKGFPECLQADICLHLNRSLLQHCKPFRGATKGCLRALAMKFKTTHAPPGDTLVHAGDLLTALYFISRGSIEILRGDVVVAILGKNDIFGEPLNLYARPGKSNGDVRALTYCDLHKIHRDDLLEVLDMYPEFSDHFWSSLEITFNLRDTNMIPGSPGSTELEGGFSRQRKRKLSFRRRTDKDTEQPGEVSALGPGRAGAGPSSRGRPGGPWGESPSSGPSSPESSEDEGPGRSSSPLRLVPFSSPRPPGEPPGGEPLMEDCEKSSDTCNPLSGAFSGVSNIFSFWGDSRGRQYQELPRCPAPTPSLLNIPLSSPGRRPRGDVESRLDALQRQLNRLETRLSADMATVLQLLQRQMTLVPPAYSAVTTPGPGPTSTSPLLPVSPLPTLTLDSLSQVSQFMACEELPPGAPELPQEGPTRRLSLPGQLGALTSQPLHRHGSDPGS

Structure (SMILES)	pIC50 [1]	CLint scaled [2]	half-life [3]	CLint scaled [4]	half-life [5]	AUC(0-t) at 72 h [6]	CL/F [7]	Cmax [8]	half-life [9]	Tmax [10]	Stability [11]	fraction unbound at 6 h, 10 µM [12]	remaining at 2 h, 1 µM [13]	remaining at 2 h, 1 µM [14]	remaining at 2 h, 1 µM [15]	remaining at 2 h, 1 µM [16]	remaining at 2 h, 1 µM [17]	remaining at 2 h, 1 µM [18]	remaining at 2 h, 1 µM [19]	also measured
C[C@@H](NC(=O)c1cnc(-c2ccc(S(C)(=O)=O)cc2)s1)c1cn(-c2cc(C(F)(F)F)ccn2)nn1	7.26	< 12 mL/min/kg	> 2 h	< 12 mL/min/kg	> 2 h	86.5 µg·h/mL	2.17 mL/min/kg	6900 ng/mL	4.71 h	2.33 h	Stable	0.0213	84.2%	84.2%	84.2%	84.2%	84.2%	84.2%	84.2%	
C[C@@H](NC(=O)c1csc(-c2ccc(S(C)(=O)=O)cc2)n1)c1cn(-c2cc(C(F)(F)F)ccn2)nn1	6.78	< 12 mL/min/kg	> 2 h	< 12 mL/min/kg	> 2 h	103 µg·h/mL	1.67 mL/min/kg	6610 ng/mL	6.6 h	3 h										Activity [20]: Non-toxic; Activity [21]: Non-toxic
C[C@H](NC(=O)c1cnc(-c2ccc(S(C)(=O)=O)cc2)s1)c1cn(-c2cc(C(F)(F)F)ccn2)nn1	7.60	< 12 mL/min/kg	> 2 h	< 12 mL/min/kg	> 2 h	1160 µg·h/mL		19800 ng/mL	162 h	24 h	Stable	0.003	100%	100%	100%	100%	100%	100%	100%	Activity [22]: Non-toxic; Activity [23]: Non-toxic; pIC50 [24]: < 4.52
